# Source: patent US5482967A, “Condensed heterocyclic compounds, their production and use” (Takeda Chemical Industries, Ltd., priority 1992, dated 1996)
# Counter-ions that a name gives are not always drawn.
# Molecular target: substance P receptor (Homo sapiens, UniProt P25103)
# Assay: Radioligand receptor binding inhibitory assay using receptor from human lymphoblast cells (IM-9), 125I-BHSP
# Conditions: IM-9 receptor, 25° C., 30 minutes
# Method: The method of A. Margaret et al. [Molecular Pharmacology 42, 458 (1992)] was modified and used. The receptor was prepared from human lymphoblast cells (IM-9). IM-9 cells were grown in 175 cm^2 tissue culture flasks (100 ml×10) at a density approximately 2×10^5 /ml of RPMI 1640 with L-glutamine, 10% (V/V) heat inactivated fetal calf serum, penicillin (100 u/ml), and streptomycin (100 μg/ml) at 37° C. in 5% CO2 /95% air for 3 days. IM-9 cells were obtained by centrifugation at 500×g for 5 minutes at 5° C. The pellet obtained was washed once with phosphate buffer (Flow Laboratories, CAT No. 28-103-05), homogenized using Polytron homogenizer (Kinematika, Germany) in 30 ml of 50 mM Tris-HCl buffer containing 120 mM NaCl, 5 mM KCl, 2 μg/ml phenylmethyl sulfonyl fluoride, and 1 mM ethylenediamine tetra-acetic acid and then centrifuged at 40,000×g for 20 minutes. The residue was washed twice with 30 ml of buffer described above, and preserved frozen (-80° C.).
# The above specimen was suspended in a reaction buffer (50 mM Tris-HCl buffer (pH 7.4), 0.02% bovine serum albumin, 1 mM phenylmethylsulfonyl fluoride, 2 μg/ml chymostatin, 40 μg/ml bacitracin, 3 mM manganese chloride) at a protein concentration of 1.5 mg/ml and a 100 μl portion of the suspension was used in the reaction. After addition of the sample and 125I-BHSP (0.46 KBq), the reaction was conducted in 0.2 ml of reaction buffer at 25° C. for 30 minutes. The amount of nonspecific binding was determined by adding substance P at a final concentration of 2×10^-6 M. After the reaction, using a cell harvester (290PHD, Cambridge Technology, Inc., England), rapid filtration was carried out through a glass filter (GF/B, Whatman, U.S.A.) to stop the reaction. After washing three times with 250 μl of 50 mM Tris-HCl buffer (pH 7.4) containing 0.02% bovine serum albumin, the radioactivity remaining on the filter was measured with a gamma counter. Before use, the filter was immersed in 0.1% polyethyleneimine for 24 hours and air-dried.
# Sequence of substance P receptor (P25103 whole entry): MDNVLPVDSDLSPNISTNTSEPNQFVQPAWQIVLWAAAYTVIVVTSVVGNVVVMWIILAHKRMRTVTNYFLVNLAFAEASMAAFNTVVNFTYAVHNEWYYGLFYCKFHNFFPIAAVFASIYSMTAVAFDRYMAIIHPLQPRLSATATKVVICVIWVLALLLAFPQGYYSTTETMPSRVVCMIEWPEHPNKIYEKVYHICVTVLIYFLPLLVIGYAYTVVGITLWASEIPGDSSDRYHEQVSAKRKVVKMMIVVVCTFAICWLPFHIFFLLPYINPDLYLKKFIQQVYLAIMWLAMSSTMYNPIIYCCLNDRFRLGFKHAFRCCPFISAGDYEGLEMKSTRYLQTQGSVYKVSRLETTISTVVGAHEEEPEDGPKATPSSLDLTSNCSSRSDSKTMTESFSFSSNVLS
row,Compound,IC50 [nM]
1,"Cc1ccccc1-c1c(C[S+]([O-])Cc2cc(C(F)(F)F)cc(C(F)(F)F)c2)n(C)c(=O)c2ccccc12 (stereo not shown) [Example 218, 3,5-Bis(trifluoromethyl)benzyl 1,2-dihydro-2-methyl-4-(2-methylphenyl)-1-oxo-3-isoquinolinemethyl sulfoxide]",23
2,"Cc1cc2c(-c3ccccc3)c(CC(=O)N(C)Cc3ccccc3Cl)n(C)c(=O)c2cc1C [Example 221, N-(2-Chlorobenzyl)-1,2-dihydro-N,2,6,7-tetramethyl-1-oxo-4-phenyl-3-isoquinolineacetamide]",130
3,"Cc1cc2c(-c3ccccc3)c(C(=O)NCc3cc(C(F)(F)F)cc(C(F)(F)F)c3)n(CC(N)=O)c(=O)c2cc1C [Example 225, N-[3,5-Bis(trifluoromethyl)benzyl]-2-carbamoylmethyl-1,2-dihydro-6,7-dimethyl-1-oxo-4-phenyl-3-isoquinolinecarboxamide]",94
4,"Cc1cc(C)cc(CNC2CCCn3c2c(-c2ccccc2)c2cc(C)c(C)cc2c3=O)c1 (stereo not shown) [Example 233, 1-(3,5-Dimethylbenzylamino)-1,2,3,4-tetrahydro-8,9-dimethyl-6-oxo-11-phenyl-6H-benzo[b]quinolizine hydrochloride]",44
5,"COc1ccccc1CNC1CCCn2c1c(-c1ccccc1)c1ccccc1c2=O (stereo not shown) [Example 239, 1,2,3,4-Tetrahydro-1-(2-methoxybenzylamino)-6-oxo-11-phenyl-6H-benzo[b]quinolizine]",80
6,"O=C(NCc1cc(C(F)(F)F)cc(C(F)(F)F)c1)c1oc(=O)c2ccccc2c1-c1ccc(F)cc1 [Example 245, N-[3,5-Bis(trifluoromethyl)benzyl]-4-(4-fluorophenyl)-1-oxo-1H-2-benzopyran-3-carboxamide]",59
7,Cc1ccccc1-c1c(C(=O)N(C)Cc2cc(C(F)(F)F)cc(C(F)(F)F)c2)c(=O)oc2ccc(Cl)cc12 [Example 248],16
8,"CN(Cc1cc(C(F)(F)F)cc(C(F)(F)F)c1)C(=O)c1c(-c2ccccc2)c2cc(Cl)ccc2oc1=O [Example 249, N-[3,5-Bis(trifluoromethyl)benzyl]-6-chloro-N-methyl-2-oxo-4-phenyl-2H-1-benzopyran-3-carboxamide]",17
9,"COc1ccccc1-c1c(C(=O)N(C)Cc2cc(C(F)(F)F)cc(C(F)(F)F)c2)c(=O)oc2ccc(Cl)cc12 [Example 251, N-[3,5-Bis(trifluoromethyl)benzyl]-6-chloro-4-(2-methoxyphenyl)-N-methyl-2-oxo-2H-1-benzopyran-3-carboxamide]",60
10,"Cn1c(=O)c(C(=O)NCc2cc(C(F)(F)F)cc(C(F)(F)F)c2)c(-c2ccccc2Cl)c2ccccc21 [Example 261, N-[3,5-Bis(trifluoromethyl)benzyl]-4-(2-chlorophenyl)-1,2-dihydro-1-methyl-2-oxo-3-quinolinecarboxamide]",63
11,"Cc1ccc2c(c1)c(-c1ccccc1Cl)c(C(=O)N(C)Cc1cc(C(F)(F)F)cc(C(F)(F)F)c1)c(=O)n2C [Example 263, N-[3,5-Bis(trifluoromethyl)benzyl]-4-(2-chlorophenyl)-1,2-dihydro-N,1,6-trimethyl-2-oxo-3-quinolinecarboxamide]",46
12,"CN(Cc1cc(C(F)(F)F)cc(C(F)(F)F)c1)C(=O)c1cnc2ccc(Cl)cc2c1-c1ccccc1 [Example 264, N-[3,5-Bis(trifluoromethyl)benzyl]-6-chloro-N-methyl-4-phenyl-3-quinolinecarboxamide]",16
13,"COc1nc2ccccc2c(-c2ccccc2)c1C(=O)N(C)Cc1cc(C(F)(F)F)cc(C(F)(F)F)c1 [Example 270, N-[3,5-Bis(trifluoromethyl)benzyl]-2-methoxy-N-methyl-4-phenyl-3-quinolinecarboxamide]",10

# Compounds with a lower IC50, results first:
row,IC50 [nM],Compound
1,8.6,"CN(Cc1cc(C(F)(F)F)cc(C(F)(F)F)c1)C(=O)c1oc(=O)c2ccc(Cl)cc2c1-c1ccccc1 [Example 242, N-[3,5-Bis(trifluoromethyl)benzyl]-6-chloro-N-methyl-1-oxo-4-phenyl-1H-2-benzopyran-3-carboxamide]"
2,8.2,"Cc1nc2ccccc2c(-c2ccccc2)c1C(=O)NCc1cc(C(F)(F)F)cc(C(F)(F)F)c1 [Example 266, N-[3,5-Bis(trifluoromethyl)benzyl]-2-methyl-4-phenyl-3-quinolinecarboxamide]"
3,5.2,Cc1ccc2c(=O)oc(C(=O)N(C)Cc3cc(C(F)(F)F)cc(C(F)(F)F)c3)c(-c3ccccc3)c2c1 [Example 247]
4,4.4,"CN(Cc1cc(C(F)(F)F)cc(C(F)(F)F)c1)C(=O)c1c(-c2ccccc2C(F)(F)F)c2ccccc2oc1=O [Example 256, N-[3,5-Bis(trifluoromethyl)benzyl]-N-methyl-2-oxo-4-(2trifluoromethylphenyl)-2H-1-benzopyran-3-carboxamide]"
5,3.1,"CN(Cc1cc(C(F)(F)F)cc(C(F)(F)F)c1)C(=O)c1c(-c2ccccc2)c2ccccc2[nH]c1=O [Example 258, N-[3,5-Bis(trifluoromethyl)benzyl]-1,2-dihydro-N-methyl-2-oxo-4-phenyl-3-quinolinecarboxamide]"
6,2,"O=C1c2c(-c3ccccc3)c3ccccc3c(=O)n2CCN1Cc1cc(C(F)(F)F)cc(C(F)(F)F)c1 [Example 240, N-[3,5-Bis(trifluoromethyl)benzyl]-1,2,3,4-tetrahydro-1,6-dioxo-11-phenyl-6H-pyrazino[1,2-b]isoquinoline]"
7,2,"CN(Cc1cc(C(F)(F)F)cc(C(F)(F)F)c1)C(=O)c1c(-c2ccccc2Cl)c2ccccc2n(C)c1=O [Example 262, N-[3,5-Bis(trifluoromethyl)benzyl]-4-(2-chlorophenyl)-1,2-dihydro-N,1-dimethyl-2-oxo-3-quinolinecarboxamide]"
8,1.9,"CNc1nc2ccccc2c(-c2ccccc2)c1C(=O)N(C)Cc1cc(C(F)(F)F)cc(C(F)(F)F)c1 [Example 271, N-[3,5-Bis(trifluoromethyl)benzyl]-N-methyl-2-methylamino-4-phenyl-3-quinolinecarboxamide]"
9,1.6,"COc1ccccc1-c1c(C(=O)N(C)Cc2cc(C(F)(F)F)cc(C(F)(F)F)c2)oc(=O)c2ccccc12 [Example 244, N-[3,5-Bis(trifluoromethyl)benzyl]-4-(2-methoxyphenyl)-N-methyl-1-oxo-1H-2-benzopyran-3-carboxamide]"
10,1.4,"CN(Cc1cc(C(F)(F)F)cc(C(F)(F)F)c1)C(=O)c1c(Cl)nc2ccccc2c1-c1ccccc1 [Example 269, N-[3,5-Bis(trifluoromethyl)benzyl]-2-chloro-N-methyl-4-phenyl-3-quinolinecarboxamide]"
11,1.3,"COc1ccccc1-c1c(C(=O)N(C)Cc2cc(C(F)(F)F)cc(C(F)(F)F)c2)c(=O)oc2ccccc12 [Example 255, N-[3,5-Bis(trifluoromethyl)benzyl]-4-(2-methoxyphenyl)-N-methyl-2-oxo-2H-1-benzopyran-3-carboxamide]"
12,1,"CN(Cc1cc(C(F)(F)F)cc(C(F)(F)F)c1)C(=O)c1c(-c2ccccc2)c2ccccc2n(C)c1=O [Example 260, N-[3,5-Bis(trifluoromethyl)benzyl]-1,2-dihydro-N,1-dimethyl-2-oxo-4-phenyl-3-quinolinecarboxamide]"
13,0.9,"CN(Cc1cc(C(F)(F)F)cc(C(F)(F)F)c1)C(=O)c1oc(=O)c2ccccc2c1-c1ccccc1 [Example 243, N-[3,5-Bis(trifluoromethyl)benzyl]-N-methyl-1-oxo-4-phenyl-1H-2-benzopyran-3-carboxamide]"
14,0.9,"CN(Cc1cc(C(F)(F)F)cc(C(F)(F)F)c1)C(=O)c1c(-c2ccccc2)c2ccccc2oc1=O [Example 250, N-[3,5-Bis(trifluoromethyl)benzyl]-N-methyl-2-oxo-4-phenyl-2H-1-benzopyran-3-carboxamide]"
15,0.68,"Cc1nc2ccccc2c(-c2ccccc2)c1C(=O)N(C)Cc1cc(C(F)(F)F)cc(C(F)(F)F)c1 [Example 267, N-[3,5-Bis(trifluoromethyl)benzyl]-N,2-dimethyl-4-phenyl-3-quinolinecarboxamide]"
16,0.61,"CN(Cc1cc(C(F)(F)F)cc(C(F)(F)F)c1)C(=O)c1oc(=O)c2ccccc2c1-c1ccc(F)cc1 [Example 246, N-[3,5-Bis(trifluoromethyl)benzyl]-4-(4-fluorophenyl)-N-methyl-1-oxo-1H-2-benzopyran-3-carboxamide]"
17,0.52,"CN(Cc1cc(C(F)(F)F)cc(C(F)(F)F)c1)C(=O)c1cnc2ccccc2c1-c1ccccc1 [Example 265, N-[3,5-Bis(trifluoromethyl)benzyl]-N-methyl-4-phenyl-3-quinolinecarboxamide]"
18,0.36,"Cc1ccccc1-c1c(C(=O)N(C)Cc2cc(C(F)(F)F)cc(C(F)(F)F)c2)c(=O)oc2ccccc12 [Example 254, N-[3,5-Bis(trifluoromethyl)benzyl]-N-methyl-4-(2-methylphenyl)-2-oxo-2H-1-benzopyran-3-carboxamide]"
